Our source for the agonistic activity and EC50 values is patent US8829034B2, “Compounds which modulate the CB2 receptor” (Boehringer Ingerlheim International GmbH, priority 2006, dated 2014).

Like-named read-outs stand apart in the source and are kept apart here.

For this assay, the target named is T1, human CB2R (Homo sapiens, UniProt P34972).
T1 construct: host or cells: CHO cells
Kind of assay: CB2R mediated modulation of cAMP synthesis. The assay is classed as cell-based. As to conditions: for agonistic activity: found through the use of the above described assays. The essentials: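 CHO cells expressing human CB2R were treated with compound for 30 min at 37 °C in buffer containing 1 mM IBMX, 0.25% BSA and 10 uM forskolin. cAMP was measured after lysis. EC50 was taken as 50% inhibition of forskolin-stimulated cAMP, with 100% defined by 1 uM CP55940, using a four-parameter logistic fit.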

T1 sequence (P34972 whole entry): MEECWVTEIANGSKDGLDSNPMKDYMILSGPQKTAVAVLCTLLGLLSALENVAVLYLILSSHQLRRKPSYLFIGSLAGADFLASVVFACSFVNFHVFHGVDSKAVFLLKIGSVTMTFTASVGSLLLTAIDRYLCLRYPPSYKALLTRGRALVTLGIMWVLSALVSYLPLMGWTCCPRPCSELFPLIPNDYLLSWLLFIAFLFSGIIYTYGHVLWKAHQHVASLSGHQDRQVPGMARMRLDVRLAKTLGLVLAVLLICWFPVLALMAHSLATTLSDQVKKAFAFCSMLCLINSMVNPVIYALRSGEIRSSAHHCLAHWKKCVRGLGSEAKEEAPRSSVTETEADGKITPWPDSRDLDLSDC

With `CC(C)(C)c1csc(NC(=O)C(C)(C)S(C)(=O)=O)n1` [N-(4-tert-Butyl-thiazol-2-yl)-2-methanesulfonyl-2-methyl-propionamide], the agonistic activity entry is listed as “agonistic activity”.

As for `CC(C)(C)c1csc(NC(=O)C(C)(C)S(=O)(=O)C(C)(C)C)n1` [N-(4-tert-Butyl-thiazol-2-yl)-2-methyl-2-(2-methyl-propane-2-sulfonyl)-propionamide], the EC50 was found to be 61.1 nM and the agonistic activity result was “agonistic activity”.

With `CCCS(=O)(=O)C(C)(C)C(=O)Nc1nc(C(C)(C)C)cs1` [N-(4-tert-Butyl-thiazol-2-yl)-2-methyl-2-(propane-1-sulfonyl)-propionamide], the response was half-maximal at 19.2 nM (EC50) and the agonistic activity entry is reported as “agonistic activity”.

Take `CC(C)S(=O)(=O)C(C)(C)C(=O)Nc1nc(C(C)(C)C)cs1` [N-(4-tert-Butyl-thiazol-2-yl)-2-methyl-2-(propane-2-sulfonyl)-propionamide]: the agonistic activity result is reported as “agonistic activity”.

For the molecule `CC(C)(C)c1csc(NC(=O)C(C)(C)S(=O)(=O)C2CCOCC2)n1` [N-(4-tert-Butyl-thiazol-2-yl)-2-methyl-2-(tetrahydro-pyran-4-sulfonyl)-propionamide], the agonistic activity result is “agonistic activity”. In addition, the EC50 (CHO cells expressing human CB2R, inhibition of forskolin-stimulated cAMP synthesis, compounds having agonist activity, read-out: CB2 EC50) came to 12.4 nM.

For the molecule `CC(C)(C)c1csc(NC(=O)C(C)(C)S(=O)(=O)CC2CCOCC2)n1` [N-(4-tert-Butyl-thiazol-2-yl)-2-methyl-2-(tetrahydro-pyran-4-ylmethanesulfonyl)-propionamide], the agonistic activity result is recorded as “agonistic activity”.

Consider `CC(C)C(C(=O)Nc1nc(C(C)(C)C)cs1)S(=O)(=O)C(C)C` (stereo not drawn) [N-(4-tert-Butyl-thiazol-2-yl)-3-methyl-2-(propane-2-sulfonyl)-butyramide], for which the agonistic activity result is listed as “agonistic activity”.

For `CCCS(=O)(=O)C(C)(C)C(=O)Nc1nc(-c2ccccc2)c(CC)s1` [N-(5-Ethyl-4-phenyl-thiazol-2-yl)-2-methyl-2-(propane-1-sulfonyl)-propionamide], the response was half-maximal at 10.8 nM (EC50) and the agonistic activity entry is “agonistic activity”.

With `CCc1sc(NC(=O)C(C)(C)S(=O)(=O)CC2CCOCC2)nc1-c1ccccc1` [N-(5-Ethyl-4-phenyl-thiazol-2-yl)-2-methyl-2-(tetrahydro-pyran-4-ylmethanesulfonyl)-propionamide], the response was half-maximal at 2 nM (EC50) and the agonistic activity result was “agonistic activity”.

As to `CC(C)c1cc(NC(=O)C(C)(C)S(=O)(=O)CC2CCOCC2)n(C)n1` [N-(5-Isopropyl-2-methyl-2H-pyrazol-3-yl)-2-methyl-2-(tetrahydro-pyran-4-ylmethanesulfonyl)-propionamide], the agonistic activity result was “agonistic activity”.

`CC(C)(C)c1nnc(NC(=O)C(C)(C)S(=O)(=O)C2CCCC2)s1` [N-(5-tert-Butyl-1,3,4-thiadiazol-2-yl)-2-cyclopentanesulfonyl-2-methyl-propionamide]: the EC50 was 18.6 nM and the agonistic activity entry was “agonistic activity”.

For the molecule `Cn1nc(C(C)(C)C)cc1NC(=O)C(C)(C)S(=O)(=O)CC(C)(C)C` [N-(5-tert-Butyl-2-methyl-2H-pyrazol-3-yl)-2-(2,2-dimethyl-propane-1-sulfonyl)-2-methyl-propionamide], the agonistic activity entry is recorded as “agonistic activity”.

Consider `CCCC(CC)S(=O)(=O)C(C)(C)C(=O)Nc1cc(C(C)(C)C)nn1C` (stereo not drawn) [N-(5-tert-Butyl-2-methyl-2H-pyrazol-3-yl)-2-(hexane-3-sulfonyl)-2-methyl-propionamide], for which the agonistic activity result is “agonistic activity”.

On to `Cn1nc(C(C)(C)C)cc1NC(=O)C(C)(C)S(=O)(=O)CC1CCC1` [N-(5-tert-Butyl-2-methyl-2H-pyrazol-3-yl)-2-cyclobutylmethanesulfonyl-2-methyl-propionamide], for which it took 33 nM to reach a half-maximal effect (EC50) and the agonistic activity result was “agonistic activity”.

Turning to `Cn1nc(C(C)(C)C)cc1NC(=O)C(C)(C)S(=O)(=O)C1CCCCCC1` [N-(5-tert-Butyl-2-methyl-2H-pyrazol-3-yl)-2-cycloheptanesulfonyl-2-methyl-propionamide], it took 6.5 nM to reach a half-maximal effect (EC50) and the agonistic activity entry is “agonistic activity”.

Turning to `Cn1nc(C(C)(C)C)cc1NC(=O)C(C)(C)S(=O)(=O)CC1CCCCC1` [N-(5-tert-Butyl-2-methyl-2H-pyrazol-3-yl)-2-cyclohexylmethanesulfonyl-2-methyl-propionamide], a half-maximal response (EC50) required 23.8 nM and the agonistic activity entry is “agonistic activity”.

Consider `Cn1nc(C(C)(C)C)cc1NC(=O)C(C)(C)S(=O)(=O)C1CCCC1` [N-(5-tert-Butyl-2-methyl-2H-pyrazol-3-yl)-2-cyclopentanesulfonyl-2-methyl-propionamide], for which the agonistic activity entry is reported as “agonistic activity”.

`CCS(=O)(=O)C(C)(C)C(=O)Nc1cc(C(C)(C)C)nn1C` [N-(5-tert-Butyl-2-methyl-2H-pyrazol-3-yl)-2-ethanesulfonyl-2-methyl-propionamide]: the agonistic activity entry is given as “agonistic activity”.

`Cn1nc(C(C)(C)C)cc1NC(=O)C(C)(C)S(C)(=O)=O` [N-(5-tert-Butyl-2-methyl-2H-pyrazol-3-yl)-2-methanesulfonyl-2-methyl-propionamide]: the agonistic activity result is listed as “agonistic activity”.

Take `Cn1nc(C(C)(C)C)cc1NC(=O)C(C)(C)S(=O)(=O)C(C)(C)C` [N-(5-tert-Butyl-2-methyl-2H-pyrazol-3-yl)-2-methyl-2-(2-methyl-propane-2-sulfonyl)-propionamide]: the agonistic activity result is “agonistic activity”.

In the case of `CC(C)CCS(=O)(=O)C(C)(C)C(=O)Nc1cc(C(C)(C)C)nn1C` [N-(5-tert-Butyl-2-methyl-2H-pyrazol-3-yl)-2-methyl-2-(3-methyl-butane-1-sulfonyl)-propionamide], it took 15.4 nM to reach a half-maximal effect (EC50) and the agonistic activity entry is reported as “agonistic activity”.

In the case of `Cn1nc(C(C)(C)C)cc1NC(=O)C(C)(C)S(=O)(=O)C[C@H]1CCC(=O)N1` [N-(5-tert-Butyl-2-methyl-2H-pyrazol-3-yl)-2-methyl-2-((R)-5-oxo-pyrrolidin-2-ylmethanesulfonyl)-propionamide], the agonistic activity entry is on record as “agonistic activity”.

For `Cn1nc(C(C)(C)C)cc1NC(=O)C(C)(C)S(=O)(=O)C[C@@H]1CCC(=O)N1` [N-(5-tert-Butyl-2-methyl-2H-pyrazol-3-yl)-2-methyl-2-((S)-5-oxo-pyrrolidin-2-ylmethanesulfonyl)-propionamide], the agonistic activity entry is recorded as “agonistic activity”.

For the molecule `CCCS(=O)(=O)C(C)(C)C(=O)Nc1cc(C(C)(C)C)nn1C` [N-(5-tert-Butyl-2-methyl-2H-pyrazol-3-yl)-2-methyl-2-(propane-1-sulfonyl)-propionamide], the agonistic activity result is on record as “agonistic activity”.

On to `CC(C)S(=O)(=O)C(C)(C)C(=O)Nc1cc(C(C)(C)C)nn1C` [N-(5-tert-Butyl-2-methyl-2H-pyrazol-3-yl)-2-methyl-2-(propane-2-sulfonyl)-propionamide], for which the agonistic activity entry is “agonistic activity”.

In the case of `Cn1nc(C(C)(C)C)cc1NC(=O)C(C)(C)S(=O)(=O)CC1CCCO1` (stereo not drawn) [N-(5-tert-Butyl-2-methyl-2H-pyrazol-3-yl)-2-methyl-2-(tetrahydro-furan-2-ylmethanesulfonyl)-propionamide], the agonistic activity entry is on record as “agonistic activity”.

As usually defined, the EC50 is the concentration at which the effect is half-maximal.
